Results: the NIST ThermoML archive (doi:10.1016/j.jct.2010.02.015)
Several values for one entry are separate records, joined by “and”; a condition that tells them apart may be missing. Identical values can stand only once.

Settings: Gas, Buoyancy - hydrostatic balance with magnetic suspension - two sinkers

[He] [helium]
Settings	mass density
400 K, 37939 kPa	40.5581 kg/m3
400 K, 37940 kPa	40.5595 kg/m3
400 K, 37941 kPa	40.56 kg/m3
400 K, 37942 kPa	40.5606 kg/m3
425 K, 7875.4 kPa	8.7027 kg/m3
425 K, 7875.6 kPa	8.703 kg/m3
425 K, 7875.7 kPa	8.703 kg/m3
425 K, 7875.8 kPa	8.7031 kg/m3
425 K, 11516 kPa	12.586 kg/m3 and 12.5859 kg/m3
425 K, 11517 kPa	12.5867 kg/m3 and 12.5863 kg/m3
425 K, 15540 kPa	16.7803 kg/m3
425 K, 15541 kPa	16.7806 kg/m3 and 16.7809 kg/m3
425 K, 19133 kPa	20.4427 kg/m3 and 20.4422 kg/m3
425 K, 19134 kPa	20.4431 kg/m3
425 K, 25118 kPa	26.3791 kg/m3
425 K, 25119 kPa	26.3797 kg/m3
425 K, 25120 kPa	26.3801 kg/m3 and 26.3808 kg/m3
425 K, 31604 kPa	32.5927 kg/m3
425 K, 31605 kPa	32.5929 kg/m3
425 K, 31606 kPa	32.5939 kg/m3
425 K, 31607 kPa	32.5953 kg/m3
425 K, 37906 kPa	38.4268 kg/m3
425 K, 37908 kPa	38.4278 kg/m3
425 K, 37909 kPa	38.4293 kg/m3
425 K, 37913 kPa	38.4326 kg/m3
450 K, 4775.3 kPa	5.0371 kg/m3
450 K, 4775.4 kPa	5.0373 kg/m3 and 5.0374 kg/m3
450 K, 7655.9 kPa	8.0083 kg/m3
450 K, 7656 kPa	8.0084 kg/m3 and 8.0085 kg/m3
450 K, 11907 kPa	12.3041 kg/m3 [middle of 4 runs]
450 K, 15358 kPa	15.7171 kg/m3 [middle of 4 runs]
450 K, 18965 kPa	19.2155 kg/m3
450 K, 18966 kPa	19.2158 kg/m3 and 19.2164 kg/m3 and 19.2154 kg/m3
450 K, 24940 kPa	24.8633 kg/m3 and 24.8624 kg/m3
450 K, 24941 kPa	24.8636 kg/m3
450 K, 24943 kPa	24.8658 kg/m3
450 K, 31394 kPa	30.7672 kg/m3
450 K, 31395 kPa	30.7683 kg/m3
450 K, 31396 kPa	30.7693 kg/m3
450 K, 31398 kPa	30.7705 kg/m3
450 K, 37608 kPa	36.2728 kg/m3
450 K, 37610 kPa	36.274 kg/m3
450 K, 37611 kPa	36.2757 kg/m3
450 K, 37613 kPa	36.2772 kg/m3
475 K, 4812.4 kPa	4.813 kg/m3 and 4.8133 kg/m3 and 4.8131 kg/m3
475 K, 7937.7 kPa	7.8707 kg/m3
475 K, 7937.9 kPa	7.871 kg/m3
475 K, 7938 kPa	7.8709 kg/m3
475 K, 11474 kPa	11.2698 kg/m3 and 11.2694 kg/m3
475 K, 11475 kPa	11.2697 kg/m3 and 11.2696 kg/m3
475 K, 15102 kPa	14.6905 kg/m3 and 14.6903 kg/m3 and 14.69 kg/m3
475 K, 15103 kPa	14.6908 kg/m3
475 K, 18995 kPa	18.29 kg/m3 and 18.2901 kg/m3 and 18.2895 kg/m3
475 K, 18996 kPa	18.2908 kg/m3
475 K, 25698 kPa	24.3237 kg/m3 and 24.3233 kg/m3
475 K, 25699 kPa	24.3246 kg/m3
475 K, 31116 kPa	29.0563 kg/m3
475 K, 31118 kPa	29.0576 kg/m3
475 K, 31119 kPa	29.0583 kg/m3
475 K, 31122 kPa	29.0604 kg/m3
475 K, 37990 kPa	34.8852 kg/m3
475 K, 37992 kPa	34.8873 kg/m3
475 K, 37994 kPa	34.8888 kg/m3
475 K, 37996 kPa	34.891 kg/m3
499.99 K, 37868 kPa	33.2206 kg/m3
500 K, 4928 kPa	4.6849 kg/m3 and 4.6846 kg/m3 and 4.685 kg/m3
500 K, 7887.1 kPa	7.4404 kg/m3 and 7.4403 kg/m3
500 K, 7887.3 kPa	7.4406 kg/m3
500 K, 11580 kPa	10.8213 kg/m3 and 10.8221 kg/m3 and 10.8212 kg/m3
500 K, 11581 kPa	10.8215 kg/m3
500 K, 15421 kPa	14.2721 kg/m3 and 14.2719 kg/m3
500 K, 15422 kPa	14.2732 kg/m3 and 14.2727 kg/m3
500 K, 19581 kPa	17.9371 kg/m3 and 17.9369 kg/m3
500 K, 19583 kPa	17.9388 kg/m3
500 K, 25162 kPa	22.7413 kg/m3
500 K, 25163 kPa	22.7419 kg/m3
500 K, 25166 kPa	22.7445 kg/m3
500 K, 30651 kPa	27.3437 kg/m3
500 K, 30652 kPa	27.3446 kg/m3
500 K, 30653 kPa	27.3454 kg/m3
500 K, 30654 kPa	27.3459 kg/m3
500 K, 37864 kPa	33.2185 kg/m3
500 K, 37865 kPa	33.2203 kg/m3
500 K, 37870 kPa	33.2239 kg/m3
